Data from patent US7879829B2, “19-nor-vitamin D analogs with 1,2-dihydrofuran ring” (Wisconsin Alumni Research Foundation, priority 2008, dated 2011).
“Also recorded” adds a separate entry of the source. Read-outs that look alike come from different tables or passages of the source.

Assays:
[1] = tested on: 24-hydroxylase (24 Ohase) gene promoter in ROS 17/2.8 (bone) cells; assay: In vitro transcription assay (24-hydroxylase promoter luciferase reporter); format: cell-based; details: FIG. 3; for EC50: ROS 17/2.8 cells, 24-hydroxylase promoter luciferase, 16 h, read-out: EC50, transcriptional activity in bone cells; for transcription of the 24-hydroxylase gene, times less potent than 1,25-(OH)2D3: relative to 1,25-(OH)2D3
Protocol: In vitro Transcription Assay
Transcription activity was measured in ROS 17/2.8 (bone) cells that were stably transfected with a 24-hydroxylase (24 Ohase) gene promoter upstream of a luciferase reporter gene (Arbour et al., 1998). Cells were given a range of doses. Sixteen hours after dosing the cells were harvested and luciferase activities were measured using a luminometer.
RLU=relative luciferase units.

[2] = tested on: HL-60 cells; assay: HL-60 differentiation (nitro blue tetrazolium reduction); format: cell-based, human; details: for EC50: HL-60 cells, 4 days, read-out: EC50, HL60 differentiation
Protocol: The study drugs were dissolved in ethanol and the concentrations determined using UV spectrophotometry. Serial dilutions were prepared so that a range of drug concentrations could be tested without changing the final concentration of ethanol (≦0.2%) present in the cell cultures.
Human promyelocytic leukemia (HL60) cells were grown in RPMI-1640 medium containing 10% fetal bovine serum. The cells were incubated at 37° C. in the presence of 5% CO2.
HL60 cells were plated at 1.2×10^5 cells/ml. Eighteen hours after plating, cells in duplicate were treated with drug. Four days later, the cells were harvested and a nitro blue tetrazolium reduction assay was performed (Collins et al., 1979; J. Exp. Med. 149:969-974). The percentage of differentiated cells was determined by counting a total of 200 cells and recording the number that contained intracellular black-blue formazan deposits. Verification of differentiation to monocytic cells was determined by measuring phagocytic activity (data not shown).

[3] = tested on: bone calcium mobilization; assay: Bone calcium mobilization (serum calcium); format: in vivo, Sprague-Dawley rats; details: low calcium diet (0.02%), FIG. 4; for bone calcium mobilization activity: ip
Protocol: (§1) Intestinal Calcium Transport and Bone Calcium Mobilization Male, weanling Sprague-Dawley rats were placed on Diet 11 (0.47% Ca) diet +AEK oil for one week followed by Diet 11 (0.02% Ca) +AEK oil for 3 weeks. The rats were then switched to a diet containing 0.47% Ca for one week followed by two weeks on a diet containing 0.02% Ca. Dose administration began during the last week on 0.02% calcium diet. Four consecutive ip doses were given approximately 24 hours apart. Twenty-four hours after the last dose, blood was collected from the severed neck and the concentration of serum calcium determined as a measure of bone calcium mobilization. The first 10 cm of the intestine was also collected for intestinal calcium transport analysis using the everted gut sac method.

[4] = tested on: intestinal calcium transport; assay: Intestinal calcium transport (everted gut sac method); format: in vivo, Sprague-Dawley rats; details: FIG. 5
Protocol: as §1

[5] = molecular target: T1, full-length recombinant rat vitamin D receptor (Rattus norvegicus, UniProt P13053); assay: Vitamin D receptor competitive binding with [3H]-1,25-(OH)2D3
T1 construct: Full-length recombinant rat receptor was expressed in E. coli; histidine tag (C); made in house; host or cells: E. coli BL21 (DE3) Codon Plus RIL
T1 sequence (P13053 1-423): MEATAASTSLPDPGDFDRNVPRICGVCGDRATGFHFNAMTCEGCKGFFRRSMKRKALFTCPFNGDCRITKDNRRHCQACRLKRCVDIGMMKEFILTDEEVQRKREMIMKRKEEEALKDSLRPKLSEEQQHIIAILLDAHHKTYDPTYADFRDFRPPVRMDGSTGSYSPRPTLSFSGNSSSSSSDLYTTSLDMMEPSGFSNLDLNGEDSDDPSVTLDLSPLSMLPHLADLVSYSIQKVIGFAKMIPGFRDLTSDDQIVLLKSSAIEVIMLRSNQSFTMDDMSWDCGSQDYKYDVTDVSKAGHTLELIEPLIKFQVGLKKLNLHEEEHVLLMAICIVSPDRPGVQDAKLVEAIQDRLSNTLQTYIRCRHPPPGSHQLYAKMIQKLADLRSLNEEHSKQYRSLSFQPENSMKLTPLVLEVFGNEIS
From the text: Vitamin D Receptor Binding
Full-length recombinant rat receptor was expressed in E. coli BL2 1 (DE3) Codon Plus RIL cells and purified to homogeneity using two different column chromatography systems. The first system was a nickel affinity resin that utilizes the C-terminal histidine tag on this protein. The protein that was eluted from this resin was further purified using ion exchange chromatography (S-Sepharose Fast Flow). Aliquots of the purified protein were quick frozen in liquid nitrogen and stored at −80° C. until use. For use in binding assays, the protein was diluted in TEDK50 (50 mM Tris, 1.5 mM EDTA, pH 7.4, 5 mM DTT, 150 mM KCl) with 0.1% Chaps detergent. The receptor protein and ligand concentration were optimized such that no more than 20% of the added radiolabeled ligand was bound to the receptor.
Radiolabeled and unlabeled ligands were added to 100 mcl of the diluted protein at a final ethanol concentration of ≦10%, mixed and incubated overnight on ice to reach binding equilibrium. The following day, 100 mcl of hydroxylapatite slurry (50%) was added to each tube and mixed at 10-minute intervals for 30 minutes. The hydroxylapaptite was collected by centrifugation and then washed three times with Tris-EDTA buffer (50 mM Tris, 1.5 mM EDTA, pH 7.4) containing 0.5% Titron X-100. After the final wash, the pellets were transferred to scintillation vials containing 4 ml of Biosafe II scintillation cocktail, mixed and placed in a scintillation counter. Total binding was determined from the tubes containing only radiolabeled ligand.

Row | EC50 ([2]; Homo sapiens, 96 h, FIG. 2) [nM] | Ki ([5]; full-length recombinant rat vitamin D receptor, FIG. 1, read-out: Ki, competition with [3H]-1,25-(OH)2D3 for binding to VDR) [nM] | VDR affinity, times less potent than 1,25-(OH)2D3 ([5]; relative to 1,25-(OH)2D3, FIG. 1) [times] | reduced VDR binding affinity ([5]; relative to native hormone) | SMILES | EC50 [1] [nM] | EC50 ([2]; FIG. 2) [nM] | bone calcium mobilization activity ([3]; 260 pmol/day) | serum calcium levels ([3]; all the dosages tested) | transcription of the 24-hydroxylase gene, times less potent than 1,25-(OH)2D3 [1] | transcription of the 24-hydroxylase gene, times less potent than 1,25-(OH)2D3 ([1]; listed as Ia) [times] | intestinal calcium transport activity ([4]; 780 pmol/day for 4 consecutive days, compared with 1,25-(OH)2D3 at 780 pmol/day) | intestinal calcium transport activity, overall compared with 1,25-(OH)2D3 ([4]; in vivo, no dose stated) | HL-60 differentiation, times less potent than 1,25-(OH)2D3 ([2]; relative to 1,25-(OH)2D3, FIG. 2) [times] | reduced cell differentiation potency ([2]; relative to native hormone) [log] | bone calcium mobilization activity ([3]; 7,020 pmol/day for 4 consecutive days)
1 | – | – | – | – | C=C1/C(=C\C=C2/CCC[C@]3(C)[C@@H]([C@H](C)CCCC(C)(C)O)CC[C@@H]23)C[C@@H](O)C[C@@H]1O [1,25-(OH)2D3, 1α,25-dihydroxyvitamin D3, reference compound] | 0.2 | 3 | significant activity | increased serum calcium levels at all the dosages tested | – | – | – | – | – | – | –
2 | 30 | 0.6 | ~10 | about 1 log | C[C@H](CCCC(C)(C)O)C1CCC2/C(=C/C=C3/C[C@@H](O)C4=CCO[C@@H]4C3)CCC[C@@]21C (stereo partly shown) [A-REV5, 1,2-dihydrofuran-25-hydroxy-19-nor-vitamin D3] | 8 | – | – | – | about 40 times | 40 | almost the same activity as 1,25-(OH)2D3 | promotes intestinal calcium transport in a dose dependent manner; also recorded: only slightly lower potency in vivo | ~10 | 1 | no bone calcium mobilization activity; also recorded: did not result in any mobilization of bone calcium
